According to ChEMBL document CHEMBL3045530, “Synthesis, antimycobacterial, antiviral, antimicrobial activities, and QSAR studies of isonicotinic acid-1-(substituted phenyl)-ethylidene/cycloheptylidene hydrazides” (Med Chem Res, 2012):
In brackets after ≈: the same amount, converted by molar mass.

What was measured:
[1] = test system: Human alphaherpesvirus 2; assay: Antiviral activity against Human herpesvirus 2 strain G infected human HEL cells assessed as inhibition of virus-induced cytopathicity by microscopy; assay type: functional, organism-based; settings: Human alphaherpesvirus 2, strain G
[2] = test system: Vaccinia virus; assay: Antiviral activity against Vaccinia virus infected human HEL cells assessed as inhibition of virus-induced cytopathicity by microscopy; assay type: functional, organism-based; settings: Orthopoxvirus vaccinia
[3] = test system: Escherichia coli; assay: Antimicrobial activity against Escherichia coli after 24 hr by tube dilution method; assay type: functional
[4] = Cytotoxicity against Homo sapiens (human) HeLa cells assessed as alteration in cell morphology by microscopy; assay type: cell-based; settings: read-out: MTC
[5] = Cytotoxicity against Homo sapiens (human) HEL cells assessed as alteration in cell morphology by microscopy; assay type: cell-based; settings: for MCC: read-out: MTC
[6] = test system: Human herpesvirus 3 strain Oka vaccine; assay: Antiviral activity against Human herpesvirus 3 strain Oka vaccine OKA 07-1 (Varicella zoster virus ) infected in human HEL cells assessed as inhibition of virus-induced cytopathicity; assay type: functional, organism-based; settings: Human alphaherpesvirus 3, HEL
[7] = test system: Aspergillus niger; assay: Antimicrobial activity against Aspergillus niger after 7 days by tube dilution method; assay type: functional
[8] = test system: Human alphaherpesvirus 1; assay: Antiviral activity against TK(-) aciclovir-resistant Human herpesvirus 1 strain KOS infected in human HEL cells assessed as inhibition of virus-induced cytopathicity; assay type: functional, organism-based; settings: Human alphaherpesvirus 1, KOS
[9] = test system: Human immunodeficiency virus 2; assay: Antiviral activity against Human immunodeficiency virus type 2 (ISOLATE ROD) infected MT4 cells assessed as inhibition of virus-induced cytopathic effect after 4 days by MTT assay; assay type: functional, organism-based; settings: Human immunodeficiency virus 2, ISOLATE ROD, MT4, 96 h
[10] = test system: Mammalian orthoreovirus 1; assay: Antiviral activity against Mammalian orthoreovirus 1 infected Vero cells assessed as inhibition of virus-induced cytopathicity by microscopy; assay type: functional, organism-based; settings: Mammalian orthoreovirus 1, Vero
[11] = test system: Coxsackievirus B4; assay: Antiviral activity against Human coxsackievirus B4 infected Vero cells assessed as inhibition of virus-induced cytopathicity; assay type: functional, organism-based; settings: Enterovirus B
[12] = test system: Human herpesvirus 5 strain AD169; assay: Antiviral activity against Human herpesvirus 5 strain AD169 Davis infected human HEL cells assessed as inhibition of virus-induced cytopathicity by microscopy; assay type: functional, organism-based; settings: Human betaherpesvirus 5, Davis
[13] = Cytotoxicity against Chlorocebus aethiops (African green monkey) Vero cells assessed as alteration in cell morphology by microscopy; assay type: cell-based; settings: chlorocebus sabaeus, read-out: MTC
[14] = test system: Human respirovirus 3; assay: Antiviral activity against Human parainfluenza virus 3 infected Vero cells assessed as inhibition of virus-induced cytopathicity by microscopy; assay type: functional, organism-based; settings: Human respirovirus 3, Vero
[15] = test system: Human alphaherpesvirus 1; assay: Antiviral activity against Human herpesvirus 1 strain KOS infected human HEL cells assessed as inhibition of virus-induced cytopathicity by microscopy by microscopy; assay type: functional, organism-based; settings: Human alphaherpesvirus 1, KOS
[16] = test system: Bacillus subtilis; assay: Antimicrobial activity against Bacillus subtilis after 24 hr by tube dilution method; assay type: functional
[17] = test system: Human immunodeficiency virus 1; assay: Antiviral activity against Human immunodeficiency virus 1 IIIB infected MT4 cells assessed as inhibition of virus-induced cytopathic effect after 4 days by MTT assay; assay type: functional, organism-based; settings: MT4, 96 h
[18] = test system: Respiratory syncytial virus; assay: Antiviral activity against Respiratory syncytial virus infected human HeLa cells assessed as inhibition of virus-induced cytopathicity by microscopy; assay type: functional, organism-based
[19] = test system: HEL; assay: Cytostatic against Homo sapiens (human) HEL cells assessed as alteration in cell morphology by microscopy; assay type: ADME, cell-based
[20] = Cytotoxicity against Homo sapiens (human) MT4 cells after 4 days by MTT assay; assay type: cell-based
[21] = test system: Candida albicans; assay: Antimicrobial activity against Candida albicans after 48 hr by tube dilution method; assay type: functional
[22] = test system: Sindbis virus; assay: Antiviral activity against Sindbis virus infected Vero cells assessed as inhibition of virus-induced cytopathicity; assay type: functional, organism-based
[23] = test system: Staphylococcus aureus; assay: Antimicrobial activity against Staphylococcus aureus after 24 hr by tube dilution method; assay type: functional
[24] = test system: Coxsackievirus B4; assay: Antiviral activity against Human coxsackievirus B4 infected human HeLa cells assessed as inhibition of virus-induced cytopathicity by microscopy; assay type: functional, organism-based; settings: Enterovirus B
[25] = test system: Punta Toro virus; assay: Antiviral activity against Punta Toro virus infected Vero cells assessed as inhibition of virus-induced cytopathicity; assay type: functional, organism-based
[26] = test system: Vesicular stomatitis virus; assay: Antiviral activity against Vesicular stomatitis virus infected human HeLa cells assessed as inhibition of virus-induced cytopathicity by microscopy; assay type: functional, organism-based

## C/C(=N\NC(=O)c1ccncc1)c1ccc(O)cc1
[1]
  EC50: > 20 µg/mL
[2]
  EC50: > 20 µg/mL
[3]
  -logMIC: 2.01
[4]
  MCC: 100 µg/mL
[5]
  CC50: 91 µg/mL (≈ 356 µM)
  MCC: 100 µg/mL
[6]
  EC50: > 20 µg/mL
[7]
  -logMIC: 2.31
[8]
  EC50: > 20 µg/mL
[9]
  EC50: > 95 µg/mL
[10]
  EC50: > 20 µg/mL
[11]
  EC50: > 20 µg/mL
[12]
  EC50: > 20 µg/mL
[13]
  MCC: ≥ 20 µg/mL
[14]
  EC50: > 20 µg/mL
[15]
  EC50: > 20 µg/mL
[16]
  -logMIC: 2.01
[17]
  EC50: > 95 µg/mL
[18]
  EC50: > 20 µg/mL
[19]
  Activity: Toxic
[20]
  CC50 at 96 h: 95 µg/mL (≈ 372 µM)
[21]
  -logMIC: 2.31
[22]
  EC50: > 20 µg/mL
[23]
  -logMIC: 2.01
[24]
  EC50: > 20 µg/mL
[25]
  EC50: > 20 µg/mL
[26]
  EC50: > 20 µg/mL

## C/C(=N\NC(=O)c1ccncc1)c1ccccc1O
[1]
  EC50: 1.3 µg/mL (≈ 5.09 µM)
[2]
  EC50: 3.5 µg/mL (≈ 13.7 µM)
[3]
  -logMIC: 2.31
[4]
  MCC: 1 µg/mL
[5]
  CC50: 0.4 µg/mL (≈ 1.57 µM)
  MCC: 100 µg/mL
[6]
  EC50: 1.8 µg/mL (≈ 7.05 µM)
[7]
  -logMIC: 2.31
[8]
  EC50: 4 µg/mL (≈ 15.7 µM)
[9]
  EC50: > 0.5 µg/mL
[10]
  EC50: > 4 µg/mL
[11]
  EC50: > 4 µg/mL
[12]
  EC50: > 0.8 µg/mL
[13]
  MCC: ≥ 4 µg/mL
[14]
  EC50: > 4 µg/mL
[15]
  EC50: 1.4 µg/mL (≈ 5.48 µM)
[16]
  -logMIC: 2.01
[17]
  EC50: > 0.5 µg/mL
[18]
  EC50: > 0.2 µg/mL
[19]
  Activity: Toxic
[20]
  CC50 at 96 h: 0.5 µg/mL (≈ 1.96 µM)
[21]
  -logMIC: 2.61
[22]
  EC50: > 4 µg/mL
[23]
  -logMIC: 2.01
[24]
  EC50: > 0.2 µg/mL
[25]
  EC50: > 4 µg/mL
[26]
  EC50: > 0.2 µg/mL

## C/C(=N\NC(=O)c1ccncc1)c1ccc(Cl)cc1Cl
[1]
  EC50: > 100 µg/mL
[2]
  EC50: > 100 µg/mL
[3]
  -logMIC: 2.39
[4]
  MCC: 100 µg/mL
[5]
  CC50: 11 µg/mL (≈ 35.7 µM)
  MCC: > 100 µg/mL
[6]
  EC50: > 20 µg/mL
[7]
  -logMIC: 2.39
[8]
  EC50: > 100 µg/mL
[9]
  EC50: > 38 µg/mL
[10]
  EC50: > 20 µg/mL
[11]
  EC50: > 20 µg/mL
[12]
  EC50: > 20 µg/mL
[13]
  MCC: 100 µg/mL
[14]
  EC50: > 20 µg/mL
[15]
  EC50: > 100 µg/mL
[16]
  -logMIC: 2.09
[17]
  EC50: > 38 µg/mL
[18]
  EC50: > 20 µg/mL
[19]
  Activity: Toxic
[20]
  CC50 at 96 h: 38 µg/mL (≈ 123 µM)
[21]
  -logMIC: 2.69
[22]
  EC50: > 20 µg/mL
[23]
  -logMIC: 2.09
[24]
  EC50: > 20 µg/mL
[25]
  EC50: > 20 µg/mL
[26]
  EC50: > 20 µg/mL

## C/C(=N\NC(=O)c1ccncc1)c1ccc(Cl)cc1
[1]
  EC50: > 20 µg/mL
[2]
  EC50: > 20 µg/mL
[3]
  -logMIC: 2.34
[4]
  MCC: 100 µg/mL
[5]
  CC50: 20 µg/mL (≈ 73.1 µM)
  MCC: 100 µg/mL
[6]
  EC50: > 20 µg/mL
[7]
  -logMIC: 2.34
[8]
  EC50: > 20 µg/mL
[9]
  EC50: > 88 µg/mL
[10]
  EC50: > 20 µg/mL
[11]
  EC50: > 20 µg/mL
[12]
  EC50: > 20 µg/mL
[13]
  MCC: 100 µg/mL
[14]
  EC50: > 20 µg/mL
[15]
  EC50: > 20 µg/mL
[16]
  -logMIC: 2.04
[17]
  EC50: > 88 µg/mL
[18]
  EC50: > 20 µg/mL
[19]
  Activity: Toxic
[20]
  CC50 at 96 h: 88 µg/mL (≈ 321 µM)
[21]
  -logMIC: 2.34
[22]
  EC50: > 20 µg/mL
[23]
  -logMIC: 2.34
[24]
  EC50: > 20 µg/mL
[25]
  EC50: > 20 µg/mL
[26]
  EC50: > 20 µg/mL

## COc1ccc(OC)c(/C(C)=N/NC(=O)c2ccncc2)c1
[1]
  EC50: > 100 µg/mL
[2]
  EC50: > 100 µg/mL
[3]
  -logMIC: 2.68
[4]
  MCC: > 100 µg/mL
[5]
  CC50: 100 µg/mL (≈ 334 µM)
  MCC: > 100 µg/mL
[6]
  EC50: > 100 µg/mL
[7]
  -logMIC: 2.38
[8]
  EC50: > 100 µg/mL
[9]
  EC50: > 88 µg/mL
[10]
  EC50: > 100 µg/mL
[11]
  EC50: > 100 µg/mL
[12]
  EC50: > 100 µg/mL
[13]
  MCC: > 100 µg/mL
[14]
  EC50: > 100 µg/mL
[15]
  EC50: > 100 µg/mL
[16]
  -logMIC: 2.08
[17]
  EC50: > 88 µg/mL
[18]
  EC50: > 100 µg/mL
[19]
  Activity: Toxic
[20]
  CC50 at 96 h: 88 µg/mL (≈ 294 µM)
[21]
  -logMIC: 2.38
[22]
  EC50: > 100 µg/mL
[23]
  -logMIC: 2.08
[24]
  EC50: > 100 µg/mL
[25]
  EC50: > 100 µg/mL
[26]
  EC50: > 100 µg/mL
